Publication PMC12281424, “A Rac-specific competitive inhibitor of guanine nucleotide binding reduces metastasis in triple-negative breast cancer” (Cell Reports Medicine, 2025)

Columns and labels:
CLK4(h) = CLK4(h) (Homo sapiens, UniProt Q9HAZ1); test: Kinase Profiler; assay type: biochemical
Experimental: (§1) The kinase profiler was performed by the company Eurofins (Discovery, Panlab and Cerep).

FGFR2(N549H)(h) = FGFR2(N549H)(h) (Homo sapiens, UniProt P21802, N549H); test: Kinase Profiler; assay type: biochemical
Experimental: as §1

GRK2(h) = GRK2(h) (Homo sapiens, UniProt P25098); test: Kinase Profiler; assay type: biochemical
Sequence of GRK2(h) (P25098 whole entry): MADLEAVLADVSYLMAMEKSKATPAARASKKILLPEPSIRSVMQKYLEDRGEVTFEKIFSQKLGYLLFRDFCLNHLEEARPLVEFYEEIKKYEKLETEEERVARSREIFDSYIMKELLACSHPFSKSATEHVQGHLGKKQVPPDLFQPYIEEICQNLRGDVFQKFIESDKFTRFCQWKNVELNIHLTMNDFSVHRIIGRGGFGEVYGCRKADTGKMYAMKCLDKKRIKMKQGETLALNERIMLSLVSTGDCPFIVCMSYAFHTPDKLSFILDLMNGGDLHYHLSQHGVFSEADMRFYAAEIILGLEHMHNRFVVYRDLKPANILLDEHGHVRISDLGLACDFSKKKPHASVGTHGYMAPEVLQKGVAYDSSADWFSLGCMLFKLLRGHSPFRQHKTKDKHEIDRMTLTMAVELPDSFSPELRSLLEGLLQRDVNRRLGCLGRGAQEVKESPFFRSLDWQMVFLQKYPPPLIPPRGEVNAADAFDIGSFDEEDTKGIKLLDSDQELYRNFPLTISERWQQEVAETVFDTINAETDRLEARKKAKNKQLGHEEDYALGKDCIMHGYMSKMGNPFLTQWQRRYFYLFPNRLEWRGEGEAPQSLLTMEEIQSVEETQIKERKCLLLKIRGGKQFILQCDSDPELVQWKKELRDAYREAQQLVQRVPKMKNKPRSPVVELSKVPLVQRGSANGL
Experimental: (§2) Blood cell counts, kinase profiler, safety screen, bacterial cytotoxicity, Ames, micronucleus assays were performed by the company Eurofins (France). The kinase profiler was performed by the company Eurofins (Discovery, Panlab and Cerep).

IRAK1(h) = IRAK1(h) (Homo sapiens, UniProt P51617); test: Kinase Profiler; assay type: biochemical
Experimental: as §2

CK2(h) = CK2(h) (Homo sapiens, UniProt P68400); test: Kinase Profiler; assay type: biochemical
Sequence of CK2(h) (P68400 whole entry): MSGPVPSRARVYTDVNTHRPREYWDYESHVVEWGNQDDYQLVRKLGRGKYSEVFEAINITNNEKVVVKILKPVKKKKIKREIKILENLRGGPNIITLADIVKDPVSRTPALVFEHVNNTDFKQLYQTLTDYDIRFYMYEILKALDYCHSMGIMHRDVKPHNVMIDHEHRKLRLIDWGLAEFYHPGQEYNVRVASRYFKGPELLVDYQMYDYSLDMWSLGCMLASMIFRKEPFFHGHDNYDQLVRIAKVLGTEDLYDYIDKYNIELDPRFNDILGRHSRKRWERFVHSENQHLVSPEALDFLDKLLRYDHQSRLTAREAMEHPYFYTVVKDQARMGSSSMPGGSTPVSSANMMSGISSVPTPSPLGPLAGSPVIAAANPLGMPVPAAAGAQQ
Sequence of CK2(h) (P67870 whole entry partner): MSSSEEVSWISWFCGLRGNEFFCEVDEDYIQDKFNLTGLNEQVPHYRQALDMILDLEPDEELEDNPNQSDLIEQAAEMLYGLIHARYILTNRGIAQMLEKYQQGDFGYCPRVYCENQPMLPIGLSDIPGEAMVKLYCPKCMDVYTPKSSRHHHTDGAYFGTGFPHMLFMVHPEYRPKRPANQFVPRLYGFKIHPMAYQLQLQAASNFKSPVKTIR
Experimental: as §1

WNK4(h) = WNK4(h) (Homo sapiens, UniProt Q96J92); test: Kinase Profiler; assay type: biochemical
Sequence of WNK4(h) (Q96J92 whole entry): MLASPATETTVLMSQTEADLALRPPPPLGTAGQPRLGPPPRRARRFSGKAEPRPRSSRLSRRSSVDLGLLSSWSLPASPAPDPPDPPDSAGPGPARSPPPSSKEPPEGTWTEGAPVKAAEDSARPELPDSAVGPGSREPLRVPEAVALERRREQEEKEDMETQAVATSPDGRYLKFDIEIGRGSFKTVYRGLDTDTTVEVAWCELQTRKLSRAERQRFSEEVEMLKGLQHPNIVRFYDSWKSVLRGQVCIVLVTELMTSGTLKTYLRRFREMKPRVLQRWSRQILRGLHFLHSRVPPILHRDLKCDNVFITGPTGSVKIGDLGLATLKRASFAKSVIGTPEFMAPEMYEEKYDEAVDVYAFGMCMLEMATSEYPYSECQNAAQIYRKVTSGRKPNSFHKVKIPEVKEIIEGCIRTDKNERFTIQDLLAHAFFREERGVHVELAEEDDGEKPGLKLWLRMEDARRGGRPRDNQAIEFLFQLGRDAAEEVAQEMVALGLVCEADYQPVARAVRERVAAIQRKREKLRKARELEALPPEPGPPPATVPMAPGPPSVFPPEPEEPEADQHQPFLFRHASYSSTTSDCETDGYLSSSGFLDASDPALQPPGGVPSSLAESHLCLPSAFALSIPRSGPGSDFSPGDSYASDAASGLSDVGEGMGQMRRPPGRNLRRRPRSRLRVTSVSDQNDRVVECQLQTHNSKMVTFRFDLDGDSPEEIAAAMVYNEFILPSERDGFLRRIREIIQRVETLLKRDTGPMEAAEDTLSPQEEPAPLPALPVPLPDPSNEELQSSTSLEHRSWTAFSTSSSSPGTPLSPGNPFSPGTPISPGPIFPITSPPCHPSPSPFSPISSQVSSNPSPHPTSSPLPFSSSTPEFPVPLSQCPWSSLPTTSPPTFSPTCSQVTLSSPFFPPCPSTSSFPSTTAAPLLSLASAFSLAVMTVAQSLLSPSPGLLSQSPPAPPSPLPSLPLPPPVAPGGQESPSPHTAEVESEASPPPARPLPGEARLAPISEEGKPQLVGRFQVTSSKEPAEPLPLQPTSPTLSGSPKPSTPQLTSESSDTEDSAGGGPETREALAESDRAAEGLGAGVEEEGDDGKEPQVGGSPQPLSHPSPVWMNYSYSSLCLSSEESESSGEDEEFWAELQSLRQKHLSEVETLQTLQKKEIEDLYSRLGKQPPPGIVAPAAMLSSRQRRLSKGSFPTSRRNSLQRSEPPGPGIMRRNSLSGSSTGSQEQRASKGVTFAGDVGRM
Experimental: as §1

A-Raf(h) = A-Raf(h) (Homo sapiens, UniProt P10398); test: Kinase Profiler; assay type: biochemical
Experimental: as §2

PRP4(h) = PRP4(h) (Homo sapiens, UniProt Q13523); test: Kinase Profiler; assay type: biochemical
Sequence of PRP4(h) (Q13523 whole entry): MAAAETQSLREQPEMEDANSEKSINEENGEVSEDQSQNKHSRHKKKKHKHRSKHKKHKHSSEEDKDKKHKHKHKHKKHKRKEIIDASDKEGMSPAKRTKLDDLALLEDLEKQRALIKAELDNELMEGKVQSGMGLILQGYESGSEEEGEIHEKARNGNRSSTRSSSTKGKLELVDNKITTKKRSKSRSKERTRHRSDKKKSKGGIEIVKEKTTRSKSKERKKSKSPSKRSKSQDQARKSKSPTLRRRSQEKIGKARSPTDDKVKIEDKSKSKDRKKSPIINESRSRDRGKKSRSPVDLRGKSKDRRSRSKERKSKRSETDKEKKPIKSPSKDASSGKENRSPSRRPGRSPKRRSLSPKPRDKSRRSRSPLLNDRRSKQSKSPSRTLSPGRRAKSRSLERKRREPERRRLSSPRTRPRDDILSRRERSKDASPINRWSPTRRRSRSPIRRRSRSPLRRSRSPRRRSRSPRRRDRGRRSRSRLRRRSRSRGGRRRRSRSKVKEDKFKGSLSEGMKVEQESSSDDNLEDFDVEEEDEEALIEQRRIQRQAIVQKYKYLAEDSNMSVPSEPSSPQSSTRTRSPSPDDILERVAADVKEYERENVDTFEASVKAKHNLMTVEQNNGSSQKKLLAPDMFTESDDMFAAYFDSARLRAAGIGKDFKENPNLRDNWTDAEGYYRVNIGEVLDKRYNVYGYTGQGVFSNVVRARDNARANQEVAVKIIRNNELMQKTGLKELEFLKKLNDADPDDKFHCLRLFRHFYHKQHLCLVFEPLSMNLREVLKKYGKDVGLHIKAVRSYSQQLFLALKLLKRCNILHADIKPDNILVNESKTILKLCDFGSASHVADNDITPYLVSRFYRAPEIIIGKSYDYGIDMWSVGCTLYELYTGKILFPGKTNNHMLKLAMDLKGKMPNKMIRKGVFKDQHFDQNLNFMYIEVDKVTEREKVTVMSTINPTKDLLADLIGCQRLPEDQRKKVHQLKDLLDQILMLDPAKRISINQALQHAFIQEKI
Experimental: as §1

ATR/ATRIP(h) = ATR/ATRIP(h) (Homo sapiens, UniProt Q13535); test: Kinase Profiler; assay type: biochemical
Experimental: as §1

Flt3(h) = Flt3(h) (Homo sapiens, UniProt P36888); test: Kinase Profiler; assay type: biochemical
Experimental: as §1

Syk(h) = Syk(h) (Homo sapiens, UniProt P43405); test: Kinase Profiler; assay type: biochemical
Experimental: as §1

[1] = molecular target: PI3K (p110a(H1047R)/p85a)(h) (Homo sapiens, UniProt P42336, H1047R); test: Kinase Profiler; assay type: biochemical
Experimental: as §1

Dopamine D1 = Dopamine D1 (Homo sapiens, UniProt P21728); test: Safety screen; assay type: binding
Experimental: Blood cell counts, kinase profiler, safety screen, bacterial cytotoxicity, Ames, micronucleus assays were performed by the company Eurofins (France).

TRB2(h) = TRB2(h) (Homo sapiens, UniProt Q92519); test: Kinase Profiler; assay type: biochemical
Sequence of TRB2(h) (Q92519 whole entry): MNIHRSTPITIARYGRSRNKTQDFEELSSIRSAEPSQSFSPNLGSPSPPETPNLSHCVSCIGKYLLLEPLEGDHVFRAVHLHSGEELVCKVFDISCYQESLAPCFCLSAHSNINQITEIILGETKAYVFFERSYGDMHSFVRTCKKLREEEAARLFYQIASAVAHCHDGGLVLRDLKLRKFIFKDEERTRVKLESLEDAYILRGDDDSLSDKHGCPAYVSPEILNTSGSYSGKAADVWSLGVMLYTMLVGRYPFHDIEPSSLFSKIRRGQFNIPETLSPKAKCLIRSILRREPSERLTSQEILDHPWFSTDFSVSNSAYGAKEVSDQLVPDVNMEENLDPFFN
Experimental: as §1

CDC42 = CDC42 (Homo sapiens, UniProt P60953); test: GEF-stimulated nucleotide exchange; assay type: biochemical; design: Full-length RAC2, RHOG, RHOA and CDC42 were purified as previously described; made in house; TIAM DH-PH in E. coli Rosetta (DE3) pLysS; conditions: 10^-5 M
Sequence of CDC42 (P60953 whole entry): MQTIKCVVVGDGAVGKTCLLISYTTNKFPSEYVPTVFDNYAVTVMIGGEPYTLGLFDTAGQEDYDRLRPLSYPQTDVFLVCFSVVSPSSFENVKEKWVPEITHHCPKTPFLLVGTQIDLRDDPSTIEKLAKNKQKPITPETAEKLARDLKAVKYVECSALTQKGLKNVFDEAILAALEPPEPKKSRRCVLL
Source text: Figure 4 A41 selectively impairs RAC protein activation (A) Representative surface plasmon resonance (SPR) sensograms of binding of immobilized RHOA or CDC42 with indicated increasing concentrations of A41 (N > 3). (B) Effect of A41 on GEF-stimulated RAC2, RHOG, RHOA, and CDC42 nucleotide exchange. […] Kobs is expressed as mean ± SEM. ∗p < 0.001 vs. control. (C) Effect of A41 on RAC1 G30S activation. […] The GEF TRIO was used to induce nucleotide exchange (N = 3). Data are expressed as mean ± SEM. (D) Immunoblot analysis and associated quantification of RAC-GTP level and total RAC expression in NIH-3T3 fibroblasts expressing RAC wild-type (RAC1 WT) or RAC1 oncomutants (RAC1 P29S and RAC1b) in the absence (Ctrl) and presence of A41 (10 μM). RAC activation was measured as the ratio of RAC-GTP to total RAC and expressed relative to Ctrl condition. Data are presented as mean ± SEM. ∗∗∗p < 0.001 vs. controls.
Full-length RAC1 carrying a 6xHis tag in C-terminus was purified as previously described.[64] […] Specific exchange activity toward RHOA determined by fluorescence kinetics is 0.04 s^−1M^−1.
Nucleotide exchange kinetics were measured by recording the increase in fluorescence following the association of mant-GTP on GDP-bound RHO protein or the decay in fluorescence following the dissociation of mant-GDP pre-loaded onto the RHO protein (λEx = 360 nm, λEm = 440 nm) as previously described.[39] […]

Sequence of FGFR2(N549H)(h) (P21802 22-821 N549H): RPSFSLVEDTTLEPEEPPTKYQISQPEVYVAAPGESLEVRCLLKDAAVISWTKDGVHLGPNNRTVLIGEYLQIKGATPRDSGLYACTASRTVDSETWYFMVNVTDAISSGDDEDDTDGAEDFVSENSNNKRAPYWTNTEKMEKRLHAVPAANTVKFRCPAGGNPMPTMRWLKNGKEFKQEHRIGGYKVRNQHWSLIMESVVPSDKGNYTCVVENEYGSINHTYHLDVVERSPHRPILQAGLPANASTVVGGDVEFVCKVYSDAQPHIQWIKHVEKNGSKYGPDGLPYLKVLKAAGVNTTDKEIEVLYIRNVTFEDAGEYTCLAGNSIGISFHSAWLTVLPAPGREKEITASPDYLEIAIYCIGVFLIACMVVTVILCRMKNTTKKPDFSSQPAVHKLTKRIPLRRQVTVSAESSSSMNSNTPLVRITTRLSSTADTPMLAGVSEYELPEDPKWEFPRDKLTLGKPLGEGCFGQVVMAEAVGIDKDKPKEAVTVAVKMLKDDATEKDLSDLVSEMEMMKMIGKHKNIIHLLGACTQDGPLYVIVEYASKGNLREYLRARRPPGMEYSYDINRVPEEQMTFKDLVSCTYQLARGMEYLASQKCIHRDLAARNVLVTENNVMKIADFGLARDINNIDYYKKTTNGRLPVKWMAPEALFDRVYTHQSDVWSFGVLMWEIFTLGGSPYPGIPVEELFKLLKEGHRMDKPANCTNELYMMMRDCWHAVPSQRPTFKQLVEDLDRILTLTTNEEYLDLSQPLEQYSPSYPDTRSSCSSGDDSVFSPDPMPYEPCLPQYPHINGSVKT

`COc1ccc(OC)c(NS(=O)(=O)c2ccc(NC(=O)CCSc3ccc(C)cc3)cc2)c1` [Compound A41] was tested, and the “Activity(%)” value (CLK4(h)) was 102%, the “Activity(%)” value (FGFR2(N549H)(h)) was 105% and the “Activity(%)” value (GRK2(h)) was 96%. The “Activity(%)” value (IRAK1(h)) was 104%, the “Activity(%)” value (CK2(h)) was 110% and the “Activity(%)” value (WNK4(h)) was 107%. The “Activity(%)” value (A-Raf(h)) was 85%, the “Activity(%)” value (PRP4(h)) was 110% and the “Activity(%)” value (ATR/ATRIP(h)) was 93%. The “Activity(%)” value (Flt3(h)) was 98%, the “Activity(%)” value (Syk(h)) was 91% and the “Activity(%)” value [1] was 97%. For the same molecule, the “% inh.” value (Dopamine D1) was 17%, the “Activity(%)” value (TRB2(h)) was 104% and the “activation of CDC42 induced by TIAM DH-PH” value (CDC42) was “did not change the activation”.
